Experimental data taken from patent US20100234231A1, “YIELD ENHANCING AGENT FOR HARVESTING PART OF CROP” (priority 2009, published 2010).

Columns and labels:
Assay type in all cases: in vivo
[1] = test system: sunflower (variety: Hybrid Sunflower); test: Effect of enhancing yield of sunflower seeds (field test, treatment after flowering); details: ALA hydrochloride 0.2 g/10a foliage x2, uniconazole P 0.3 g/10a, 7 days after flowering; for Number of filled seeds / Weight of filled seeds: empty seeds excluded
Description: A test field (red soil) was divided into 0.7 m^2 per compartment, and sunflower (variety: Hybrid Sunflower) was planted (6/9). A synthetic fertilizer was applied as a basal fertilizer such that N-P-K=5.0-5.0-5.0 kg/10 a (6/9). Four stocks were planted per test zone, and in the middle of growth, thinning was performed to make the test zone uniform so that there would be two stocks per test zone. Seven days after flowering, a Sumiseven P liquid preparation (containing 0.025% of uniconazole P) as an gibberellin biosynthesis inhibitor was used for treatment such that the amount of treatment of uniconazole P would be 0.3 […]) (8/20). Furthermore, a foliage treatment with 5-aminolevulic acid hydrochloride was performed at 0.2 […]), two times in total at the date of uniconazole P treatment (8/20) and 2 weeks after the uniconazole P treatment (9/3). As additional fertilization, a synthetic fertilizer was applied such that N-P-K=3.0-3.0-3.0 kg/10 a (7/8). After harvesting (9/16), the number and weight of seeds of each plant body were measured. This time, empty seeds without kernels were excluded. The test zone was provided as 6 test zones under each condition.

[2] = test system: radish (variety: Red Chime); test: Effect of enhancing yield of radish hypocotyl (pot test); details: ALA hydrochloride 0.1 g/10a foliage 6 days after prohexadione; prohexadione calcium salt 15 g/10a, 10 days after initiation of hypocotyl enlargement
Description: A certain amount of kuroboku soil was placed in a No. 6 pot (1/75000×10 a), and radish (variety: Red Chime) was planted (5/4). A liquid fertilizer Hyponica was applied as a basal fertilizer such that N-P-K=5.0-2.8-8.5 kg/10 a (5/8). Five stocks were planted per pot, and in the middle of growth, thinning was performed to make the test zone uniform so that there would be 3 stocks per pot. Ten days after the initiation of hypocotyl enlargement, prohexadione calcium salt was used as an gibberellin biosynthesis inhibitor to treat at 15 […]) (5/27). Furthermore, a treatment with 5-aminolevulic acid hydrochloride was performed at 0.1 […]) under the conditions of performing a foliage treatment (6/2) six days after the treatment with prohexadione calcium salt. […] Seven pots were used per test zone.

Turnip (variety: Honami) = test: Comparative Example: combined treatment during seedling growth, turnip yield (field test); details: ALA hydrochloride 0.2 g/10a; prohexadione calcium salt 20 g/10a; 7 days before initiation of enlargement (seedling growth)
Description: Turnip (variety: […] At this time, a synthetic fertilizer was applied as a basal fertilizer such that N-P-K=5-5-5 kg/10 a. Four stocks were planted per test zone, and 4 test zones were set up randomly for one condition so as not to be affected by the place. […] After harvesting (11/12), the weights of the aerial part and the terrestrial part of the plant body were measured.

barley = test: Effect of enhancing yield of barley grains (pot test, treatment around ear emergence)
Description: A certain amount of kuroboku soil was placed in a 15-L Polybucket (1/17500×10 a), a liquid fertilizer Hyponica was applied as a basal fertilizer such that N-P-K=5.0-2.8-8.5 kg/10 a, and barley was sowed (11/3). Five stocks of seedlings were planted per bucket, and in the middle of growth, thinning was performed to make the test zone uniform so that there would be 3 stocks per bucket. Five days before ear emergence (4/15), prohexadione calcium salt was used as an gibberellin biosynthesis inhibitor to treat at 7.0, 3.5 […]) (4/10). Furthermore, a treatment with 5-aminolevulic acid hydrochloride was performed at 0.15 […]) under the conditions of performing a foliage treatment each time at the respective times of before (4/3), simultaneously with (4/10) and after (5/8) the treatment with prohexadione calcium salt. […] Four buckets were used per test zone.

[3] = test system: rice (variety: Koshihikari); test: Effect of enhancing yield of rice (pot test, treatment after ear emergence); details: for Number of ears per stock / Number of rice grains per ear / Weight of thousand grains / Ripening rate: ALA hydrochloride 0.1 g/10 a foliage x3, prohexadione calcium salt 0.4 g/10 a, 3 days after ear emergence; for Ripening rate: number of rice grains having specific gravity of 1.06 or more/number of total rice grains x100, in %; for Yield of rice per stock: product of ears per stock, grains per ear, ripening rate and thousand-grain weight, ALA hydrochloride 0.1 g/10 a, prohexadione calcium salt 0.4 g/10 a
Description: Seeds of rice (variety: Koshihikari) were sterilized with 70% ethanol, and rice seeds heavier than a specific gravity of 1.13 were screened by brine washing. Water absorption for one night at 30° C. and germination for one night were carried out, and then the seeds were sowed in a seedling box (4/11). A certain amount of kuroboku soil was placed in a 15-L Polybucket (1/17500×10 a), a synthetic fertilizer was mixed therein as a basal fertilizer such that N-P-K=5-5-5 kg/10 a, and water was drawn in to a water depth of 3 cm. Grown seedlings were planted at 3 stocks per bucket (5/15). […] Furthermore, 5-aminolevulic acid (ALA) hydrochloride was used for a foliage treatment for three times (8/14, 8/30, 9/10) at 0.1 […]). Four buckets were used for one test zone, and the buckets were placed randomly so as not to be affected by the place.

Cl.NCC(=O)CCC(=O)O [ALA hydrochloride, 5-aminolevulic acid hydrochloride]
Live weight of plant body [1]: 1.68 kg/stock
Number of filled seeds [1]: 1348 seeds/stock
Weight of filled seeds [1]: 120.5 g/stock
Fresh weight of hypocotyl [2]: 12.2 g
Weight of aerial part (Turnip (variety: Honami)): 0.368 kg/stock
Weight of terrestrial part (Turnip (variety: Honami)): 0.725 kg/stock
Weight of grains per stock (barley; ALA hydrochloride 0.15 g.a.i/10 a at the time 7 days before prohexadione calcium salt treatment (4/3), prohexadione calcium salt none): 6.59 g
Weight of grains per stock (barley; ALA hydrochloride 0.15 g.a.i/10 a at the time 28 days after prohexadione calcium salt treatment (5/8), prohexadione calcium salt none): 6.45 g
Weight of grains per stock (barley; ALA hydrochloride 0.15 g.a.i/10 a at the time simultaneous with prohexadione calcium salt treatment (4/10), prohexadione calcium salt none): 6.83 g
Number of ears per stock [3]: 20.2
Number of rice grains per ear [3]: 80.12
Weight of thousand grains [3]: 21.9 g
Ripening rate [3]: 88.71
Yield of rice per stock [3]: 31.4 g

CCC(=O)C1=C([O-])CC(C(=O)[O-])CC1=O.[Ca+2] (stereo not drawn) [Prohexadione calcium salt, calcium 3-oxido-5-oxo-4-propionyl-3-cyclohexene carboxylate]
Fresh weight of hypocotyl [2]: 10.3 g
Weight of aerial part (Turnip (variety: Honami)): 0.349 kg/stock
Weight of terrestrial part (Turnip (variety: Honami)): 0.641 kg/stock
Weight of grains per stock (barley; ALA hydrochloride none, prohexadione calcium salt 3.5 g.a.i/10 a, 5 days before ear emergence): 6.23 g
Weight of grains per stock (barley; ALA hydrochloride none, prohexadione calcium salt 7 g.a.i/10 a, 5 days before ear emergence): 6.60 g
Number of ears per stock [3]: 20.2
Number of rice grains per ear [3]: 80.35
Weight of thousand grains [3]: 22.22 g
Ripening rate [3]: 86.09
Yield of rice per stock [3]: 31.0 g

CC(C)(C)[C@H](O)/C(=C\c1ccc(Cl)cc1)n1cncn1 [Uniconazole P, (E)-(S)-1-(4-chlorophenyl)-4,4-dimethyl-2-(1H-1,2,4-triazol-1-yl)pent-1-en-3-ol]
Live weight of plant body [1]: 1.96 kg/stock
Number of filled seeds [1]: 1377 seeds/stock
Weight of filled seeds [1]: 126.3 g/stock
